# Results published in ChEMBL document CHEMBL1201862, “PubChem BioAssay data set” (2004).
#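 Each compound was tested at five concentrations against cells in 96-well plates for 48 hours. Here, GI50 denotes the concentration required for 50% inhibition of growth.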 Active and inactive are the calls of the source. No stated cut-off is given here; in the data, active = GI50 up to about 1.1 µM and inactive = higher.
# Key:
# Assay in all cases: NCI-60 cell line screen, 48 h
# HT-29 = system: HT-29
# NCI/ADR-RES = system: NCI/ADR-RES
# OVCAR-3 = system: OVCAR-3
# PC-3 = system: PC-3
# SK-MEL-5 = system: SK-MEL-5
# HCC 2998 = system: HCC 2998
# SK-MEL-2 = system: SK-MEL-2
# SK-MEL-28 = system: SK-MEL-28
# MDA-N = system: MDA-N
# T47D = system: T47D
# COLO 205 = system: COLO 205
# K562 = system: K562
# UO-31 = system: UO-31
# OVCAR-5 = system: OVCAR-5
# OVCAR-8 = system: OVCAR-8
# HCT-15 = system: HCT-15
# U-251 = system: U-251
# Malme-3M = system: Malme-3M
# TK-10 = system: TK-10
# HOP-92 = system: HOP-92
# Hs-578T = system: Hs-578T
# KM12 = system: KM12
# RXF 393 = system: RXF 393
# MCF7 = system: MCF7
# IGROV-1 = system: IGROV-1
# DU-145 = system: DU-145
# CCRF-CEM = system: CCRF-CEM
# UACC-257 = system: UACC-257
# OVCAR-4 = system: OVCAR-4
# SW-620 = system: SW-620
# 786-0 = system: 786-0
# HOP-62 = system: HOP-62
# MDA-MB-231 = system: MDA-MB-231
# NCI-H522 = system: NCI-H522
# SF-539 = system: SF-539
# HCT-116 = system: HCT-116
# NCI-H460 = system: NCI-H460
# MOLT-4 = system: MOLT-4
# RPMI-8226 = system: RPMI-8226
# SF-268 = system: SF-268
# A549 = system: A549
# LOX IMVI = system: LOX IMVI
# SNB-19 = system: SNB-19
# ACHN = system: ACHN
# SN12C = system: SN12C
# NCI-H23 = system: NCI-H23
# HL-60 = system: HL-60
# M14 = system: M14
# MDA-MB-435 = system: MDA-MB-435
# SK-OV-3 = system: SK-OV-3
# NCI-H226 = system: NCI-H226
# SR = system: SR
# EKVX = system: EKVX
# CAKI-1 = system: CAKI-1
# SF-295 = system: SF-295
# A498 = system: A498
# SNB-75 = system: SNB-75
# UACC-62 = system: UACC-62
structure (smiles),measurement,setting,value
CCOC(=O)C(NC(=O)CC(C)C)(NC(C)C)C(F)(F)F (configuration not stated),GI50,HT-29,> 100 µM (inactive)
same,GI50,NCI/ADR-RES,> 100 µM (inactive)
same,GI50,OVCAR-3,> 100 µM (inactive)
same,GI50,PC-3,> 100 µM (inactive)
same,GI50,SK-MEL-5,> 100 µM (inactive)
same,GI50,HCC 2998,> 100 µM (inactive)
same,GI50,SK-MEL-2,> 100 µM (inactive)
same,GI50,SK-MEL-28,> 100 µM (inactive)
same,GI50,MDA-N,> 100 µM (inactive)
same,GI50,T47D,> 100 µM (inactive)
same,GI50,COLO 205,> 100 µM (inactive)
same,GI50,K562,> 100 µM (inactive)
same,GI50,UO-31,> 100 µM (inactive)
same,GI50,OVCAR-5,> 100 µM (inactive)
same,GI50,OVCAR-8,> 100 µM (inactive)
same,GI50,HCT-15,> 100 µM
same,GI50,U-251,> 100 µM (inactive)
same,GI50,Malme-3M,> 100 µM (inactive)
same,GI50,TK-10,> 100 µM (inactive)
same,GI50,HOP-92,> 100 µM (inactive)
same,GI50,Hs-578T,> 100 µM (inactive)
same,GI50,KM12,> 100 µM (inactive)
same,GI50,RXF 393,> 100 µM (inactive)
same,GI50,MCF7,> 100 µM (inactive)
same,GI50,IGROV-1,> 100 µM (inactive)
same,GI50,DU-145,> 100 µM (inactive)
same,GI50,CCRF-CEM,> 100 µM (inactive)
same,GI50,UACC-257,> 100 µM (inactive)
same,GI50,OVCAR-4,> 100 µM (inactive)
same,GI50,SW-620,> 100 µM (inactive)
same,GI50,786-0,> 100 µM (inactive)
same,GI50,HOP-62,> 100 µM (inactive)
same,GI50,MDA-MB-231,> 100 µM (inactive)
same,GI50,NCI-H522,> 100 µM (inactive)
same,GI50,SF-539,> 100 µM (inactive)
same,GI50,HCT-116,> 100 µM (inactive)
same,GI50,NCI-H460,> 100 µM (inactive)
same,GI50,MOLT-4,> 100 µM (inactive)
same,GI50,RPMI-8226,> 100 µM (inactive)
same,GI50,SF-268,> 100 µM (inactive)
same,GI50,A549,> 100 µM (inactive)
same,GI50,LOX IMVI,> 100 µM (inactive)
same,GI50,SNB-19,> 100 µM (inactive)
same,GI50,ACHN,> 100 µM (inactive)
same,GI50,SN12C,> 100 µM (inactive)
same,GI50,NCI-H23,> 100 µM (inactive)
same,GI50,HL-60,> 100 µM (inactive)
same,GI50,M14,> 100 µM (inactive)
same,GI50,MDA-MB-435,> 100 µM (inactive)
same,GI50,SK-OV-3,> 100 µM (inactive)
same,GI50,NCI-H226,> 100 µM (inactive)
same,GI50,SR,> 100 µM (inactive)
same,GI50,EKVX,> 100 µM (inactive)
same,GI50,CAKI-1,> 100 µM (inactive)
same,GI50,SF-295,> 100 µM (inactive)
same,GI50,A498,> 100 µM (inactive)
CCCCCCCCCCCCCCCCCCOCC(CCP(=O)(CP(=O)(O)O)Oc1ccccc1)OCCCCCCCCCCCCCCCCCC (configuration not stated),GI50,HT-29,> 100 µM (inactive)
same,GI50,NCI/ADR-RES,> 100 µM (inactive)
same,GI50,OVCAR-3,> 100 µM (inactive)
same,GI50,PC-3,> 100 µM (inactive)
same,GI50,SK-MEL-5,> 100 µM (inactive)
same,GI50,HCC 2998,> 100 µM (inactive)
same,GI50,SK-MEL-28,> 100 µM (inactive)
same,GI50,MDA-N,> 100 µM (inactive)
same,GI50,T47D,> 100 µM (inactive)
same,GI50,COLO 205,> 100 µM (inactive)
same,GI50,K562,> 100 µM (inactive)
same,GI50,OVCAR-5,> 100 µM (inactive)
same,GI50,OVCAR-8,> 100 µM (inactive)
same,GI50,HCT-15,> 100 µM
same,GI50,U-251,> 100 µM (inactive)
same,GI50,Malme-3M,> 100 µM (inactive)
same,GI50,TK-10,> 100 µM (inactive)
same,GI50,HOP-92,> 100 µM (inactive)
same,GI50,Hs-578T,> 100 µM (inactive)
same,GI50,KM12,> 100 µM (inactive)
same,GI50,RXF 393,> 100 µM (inactive)
same,GI50,MCF7,> 100 µM (inactive)
same,GI50,IGROV-1,> 100 µM (inactive)
same,GI50,DU-145,> 100 µM (inactive)
same,GI50,CCRF-CEM,> 100 µM (inactive)
same,GI50,UACC-257,> 100 µM (inactive)
same,GI50,OVCAR-4,> 100 µM (inactive)
same,GI50,SW-620,> 100 µM (inactive)
same,GI50,786-0,> 100 µM (inactive)
same,GI50,SNB-75,> 100 µM (inactive)
same,GI50,HOP-62,> 100 µM (inactive)
same,GI50,MDA-MB-231,> 100 µM (inactive)
same,GI50,NCI-H522,> 100 µM (inactive)
same,GI50,UACC-62,> 100 µM (inactive)
same,GI50,SF-539,> 100 µM (inactive)
same,GI50,HCT-116,> 100 µM (inactive)
same,GI50,NCI-H460,> 100 µM (inactive)
same,GI50,MOLT-4,> 100 µM (inactive)
same,GI50,RPMI-8226,> 100 µM (inactive)
same,GI50,SF-268,> 100 µM (inactive)
same,GI50,A549,> 100 µM (inactive)
same,GI50,LOX IMVI,> 100 µM (inactive)
same,GI50,SNB-19,> 100 µM (inactive)
same,GI50,ACHN,> 100 µM (inactive)
same,GI50,SN12C,> 100 µM (inactive)
same,GI50,NCI-H23,> 100 µM (inactive)
same,GI50,HL-60,> 100 µM (inactive)
same,GI50,M14,> 100 µM (inactive)
same,GI50,MDA-MB-435,> 100 µM (inactive)
same,GI50,SK-OV-3,> 100 µM (inactive)
same,GI50,NCI-H226,> 100 µM (inactive)
same,GI50,SR,> 100 µM (inactive)
same,GI50,EKVX,> 100 µM (inactive)
same,GI50,CAKI-1,> 100 µM (inactive)
same,GI50,SF-295,> 100 µM (inactive)
same,GI50,A498,> 100 µM (inactive)
